{
  "source": "patent US10882860B2",
  "about": "“Treatment of osteoarthritis” (Samumed, LLC, priority 2015, dated 2021)",
  "key": {"[1]": {"tested_on": "Wnt genes TCF7, c-Myc, Axin-2, Ascl 2, and SP5", "test": "In vitro Wnt pathway inhibition, qRT-PCR in human MSCs", "assay_type": "cell-based", "conditions": "30 nM; 48 hours; fold change vs DMSO; FIG. 15", "description": "Human mesenchymal stem cells (MSCs) were plated in 6-well plates in chondrogenic induction medium (Lonza; DMEM, dexamethasone, ascorbate, insulin-transferrin-selenium [ITS supplement], gentamycin-amphotericin [GA-1000], sodium pyruvate, proline and L-glutamine) and treated with the compound of Formula (I) (30 nM) in DMSO or TGF-β3 (20 μg/mL) as a positive control. Cells were incubated at 37° C., 5% CO2 for 48 hours. Cells were pelleted and washed, and total RNA was isolated and purified using RNeasy Plus Mini Kit (Qiagen). cDNA was synthesized from 1 μg of total RNA using QuantiTect Reverse Transcription kit (Qiagen). qRT-PCR was performed with QuantiTect SYBR Green PCR Kit (Qiagen) and gene-specific primers, using CFX384 thermal cycler (Biorad). Transcripts were quantitated by comparative Ct method and normalized to endogenous controls, β-actin and GAPDH. Fold changes were normalized to DMSO treated cells."}, "[2]": {"tested_on": "secreted GAG", "test": "Immunosuppression in chondrocytes: GAG content (DMMB)", "assay_type": "cell-based, human", "conditions": "cells stimulated with TNF-α and oncostatin M or IL-1β; 72 hours; FIG. 20A", "description": "Human MSCs were plated in 10 cm dishes in chondrogenic induction medium (Lonza; DMEM, dexamethasone, ascorbate, insulin-transferrin-selenium [ITS supplement], gentamycin-amphotericin [GA-1000], sodium pyruvate, proline and L-glutamine) and treated with TGF-β3 (20 μg/mL) to induce chondrogenic differentiation. Cells from 4 dishes were pooled and re-plated in 24-well plates in Chondrogenic Induction Medium and treated with various concentrations of the compound of Formula (I). 4 hours later, cells were stimulated by adding TNF-α (20 μg/mL)+Oncostatin M ([…]) or IL-1β (10 μg/mL) and incubated at 37° C., 5% CO2 for 72 hours. Chondrocytes were digested with papain (Sigma). GAG content was measured using the dimethylmethylene blue (DMMB) kit (Chondrex). Briefly, the digested chondrocytes were mixed with DMMB in formate buffer and absorbance at 535 nm was measured using Cytation 3 (Biotek). Nitric oxide was measured using Greiss reagent (Promega) according to manufacturer's protocol."}, "[3]": {"test": "Phase 1 clinical study: pharmacokinetics", "assay_type": "in vivo", "conditions": "human; cohorts 1, 2, and 3 (0.03, 0.07, 0.23 mg); 0, 4, 24 hours, Weeks 4 and 12; BQL", "excerpt": "(§1) The study was a first-in-human, multicenter, 24-week, placebo-controlled, single-dose, dose-escalation safety study of a Wnt pathway inhibitor in subjects suffering from moderate to severe symptomatic knee OA. The sample size was 20 subjects (randomized 4:1, 16 active: 4 placebo) per dosing cohort. Inclusion criteria included: Age, 50-75 years; Western Ontario and McMaster Universities Arthritis Index (WOMAC) Total score, 36-72 (out of 96); Kellgren-Lawrence grade, 2 or 3; and a willingness to omit pain medication for 24 hours prior to pain assessments. Exclusion criteria included: BMI>40; and treatment with IA steroids within 2 months or HA derivatives within 6 months prior to injection. A full list of the inclusion and exclusion criteria for this study can be found on clinicaltrials.gov (NCT02095548).\nThe dosing sequence included suspension compositions of either 0.03 mg, 0.07 mg, or 0.23 mg of the compound of Formula (I) (Form 1) per 2 mL injection in a vehicle containing 0.5% carboxymethylcellulose sodium and 0.05% polysorbate 80 in pH 7.4 phosphate buffered saline. […]\nPK samples were collected at 0, 4, and 24 hours post dose, and at Weeks 4 and 12. All subjects in cohorts 1, 2, and 3 had levels below limits of quantitation (BQL<0.100 ng/mL) at all recorded time points."}, "[4]": {"tested_on": "moderate-to-severe symptomatic knee OA subjects", "test": "Phase 1 clinical study: biomarkers (COMP, βCTX, P1NP)", "assay_type": "in vivo, human", "excerpt": "as §1\n(§2) The dosing sequence included suspension compositions of either 0.03 mg, 0.07 mg, or 0.23 mg of the compound of Formula (I) (Form 1) per 2 mL injection in a vehicle containing 0.5% carboxymethylcellulose sodium and 0.05% polysorbate 80 in pH 7.4 phosphate buffered saline. The placebo contained only the diluent of 0.5% carboxymethylcellulose sodium and 0.05% polysorbate 80 in pH 7.4 phosphate buffered saline. The subjects were given a single, intra-articular injection in the target knee on Treatment Day 1 and participated in a follow-up period of 24 weeks.\n(§3) Safety, pharmacokinetics (PK), biomarker, and efficacy data were collected at baseline and during the 24-week follow-up period. Safety data included adverse events (AEs), concomitant medications, clinical laboratory sampling, medical history, vital signs, ECGs, hip bone density (DXA) analysis, qCT of the target knee, and evaluation of bone edema via MM. For PK data, samples were collected 0, 4, and 24 hours post dose, and at Weeks 4 and 12. Biomarker data included data for procollagen type 1 N-propeptide (P1NP), beta C-terminal telopeptide of type 1 collagen (βCTX), and cartilage oligomeric matrix protein (COMP). Efficacy data included measurements of WOMAC Total score, WOMAC Function and Pain subscores, pain VAS, Physician Global Assessment of Disease Activity, MM, and radiographs. Efficacy assessments were used to determine the percentage of OMERACT-OARSI “strict” responders. Exploratory analyses of efficacy outcomes were conducted using a baseline-adjusted repeated measures analysis of covariance (ANCOVA) in the Intention-to-Treat (ITT) population. The sponsor was unblinded after Week 12 for each cohort; site investigators remained blinded. All AEs reported in this study were […]. Investigator opinion regarding whether AEs were related to the compound of Formula (I) was also collected for informational purposes."}, "[5]": {"tested_on": "moderate-to-severe symptomatic knee OA subjects", "test": "Phase 1 clinical study: efficacy (WOMAC, Physician Global Assessment, strict OARSI responders)", "assay_type": "in vivo, human", "conditions": "for decrease in median WOMAC total score from baseline: FIG. 24B; for decrease in mean WOMAC total score [0-96] from baseline: FIG. 24A", "excerpt": "as §1, §2, §3\nStrict responders were classified by having either a WOMAC Function subscore improvement of ≥50% with a corresponding Function score improvement of ≥20 points (scaled to [0-100]), or a WOMAC Pain subscore improvement of ≥50% with a corresponding Pain score improvement of ≥20 points (scaled to [0-100])."}},
  "data": [
    {"smiles": "CC(C)CC(=O)Nc1cncc(-c2ccc3[nH]nc(-c4nc5c(-c6cccc(F)c6)cncc5[nH]4)c3c2)c1", "note": "[compound of Formula (I)]", "values": [
      {"measurement": "expression of Wnt genes TCF7, c-Myc, Axin-2, Ascl 2, and SP5", "setting": "[1]", "result": "downregulation"},
      {"measurement": "secreted GAG", "setting": "[2]", "result": "reduced"},
      {"measurement": "plasma level (PK samples)", "setting": "[3]", "result": "< 0.100", "unit": "ng/mL"},
      {"measurement": "change in COMP", "setting": "[4]; 0.03 mg cohort", "result": "no significant changes"},
      {"measurement": "reduction in cartilage oligomeric matrix protein (COMP)", "setting": "[4]; 0.07 mg cohort, Week 12, P=0.001", "result": 130, "unit": "ng/mL"},
      {"measurement": "change in COMP", "setting": "[4]; 0.23 mg cohort", "result": "no significant changes"},
      {"measurement": "change in βCTX or P1NP", "setting": "[4]; any treatment group", "result": "no significant changes"},
      {"measurement": "WOMAC function [0-68], Week 12 Actual [Mean (SD)]", "setting": "[5]; 0.03 mg cohort, N 17", "result": 20.3},
      {"measurement": "WOMAC function [0-68], Week 12 Change from baseline [Mean (SD)]", "setting": "[5]; 0.03 mg cohort, N 17", "result": "−18.4"},
      {"measurement": "WOMAC pain [0-20], Week 12 Actual [Mean (SD)]", "setting": "[5]; 0.03 mg cohort, N 17", "result": 6.3},
      {"measurement": "WOMAC pain [0-20], Week 12 Change from baseline [Mean (SD)]", "setting": "[5]; 0.03 mg cohort, N 17", "result": "−4.4"},
      {"measurement": "decrease in median WOMAC total score from baseline", "setting": "[5]; 0.03 mg cohort", "result": "greater than 25"},
      {"measurement": "median decrease in physician global assessment from baseline", "setting": "[5]; 0.03 mg cohort, FIG. 25B", "result": "about 48"},
      {"measurement": "WOMAC function [0-68], Week 12 Actual [Mean (SD)]", "setting": "[5]; 0.07 mg cohort, N 16", "result": 18.4},
      {"measurement": "WOMAC function [0-68], Week 12 Change from baseline [Mean (SD)]", "setting": "[5]; 0.07 mg cohort, N 16", "result": "−19.2"},
      {"measurement": "WOMAC pain [0-20], Week 12 Actual [Mean (SD)]", "setting": "[5]; 0.07 mg cohort, N 16", "result": 5.3},
      {"measurement": "WOMAC pain [0-20], Week 12 Change from baseline [Mean (SD)]", "setting": "[5]; 0.07 mg cohort, N 16", "result": "−5.6"},
      {"measurement": "decrease in mean WOMAC total score [0-96] from baseline", "setting": "[5]; 0.07 mg cohort", "result": "about 27"},
      {"measurement": "decrease in median WOMAC total score from baseline", "setting": "[5]; 0.07 mg cohort", "result": "greater than 25"},
      {"measurement": "odds ratio (OR) of strict OARSI response vs placebo", "setting": "[5]; 0.07 mg cohort, Week 12, P=0.081", "result": 4.2},
      {"measurement": "percentage of strict OARSI responders", "setting": "[5]; 0.07 mg cohort, Week 12, placebo 42%", "result": 75, "unit": "%"},
      {"measurement": "WOMAC function [0-68], Week 12 Actual [Mean (SD)]", "setting": "[5]; 0.23 mg cohort, N 16", "result": 22.6},
      {"measurement": "WOMAC function [0-68], Week 12 Change from baseline [Mean (SD)]", "setting": "[5]; 0.23 mg cohort, N 16", "result": "−17.8"},
      {"measurement": "WOMAC pain [0-20], Week 12 Actual [Mean (SD)]", "setting": "[5]; 0.23 mg cohort, N 16", "result": 5.8},
      {"measurement": "WOMAC pain [0-20], Week 12 Change from baseline [Mean (SD)]", "setting": "[5]; 0.23 mg cohort, N 16", "result": "−5.7"},
      {"measurement": "decrease in mean WOMAC total score [0-96] from baseline", "setting": "[5]; all cohorts (0.03, 0.07, 0.23 mg)", "result": "≥ 23"},
      {"measurement": "decrease in mean physician global assessment score [0-100] from baseline", "setting": "[5]; all cohorts (0.03, 0.07, 0.23 mg), FIG. 25A", "result": "≥ 30"}
    ]}
  ]
}
